Test results from ChEMBL document CHEMBL1201862, “PubChem BioAssay data set” (2004).
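Step 1: Grow cells in 96-well plates. Step 2: Expose to compound for 48 hours at 5 concentrations. Step 3: Interpolate endpoints linearly; if unreached, use highest concentration. GI50: concentration for 50% inhibition of growth.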 The source made the active and inactive calls. Cut-off read from the data, not from the text of the source: active = GI50 up to about 1.1 µM and inactive = higher.

How the values were obtained:
Experiment in all cases: DTP human tumour cell line panel, 48 h
A498 = test system: A498
A549 = test system: A549
CAKI-1 = test system: CAKI-1
CCRF-CEM = test system: CCRF-CEM
COLO 205 = test system: COLO 205
DU-145 = test system: DU-145
HCT-116 = test system: HCT-116
HOP-92 = test system: HOP-92
M14 = test system: M14
MDA-MB-231 = test system: MDA-MB-231
NCI-H460 = test system: NCI-H460
OVCAR-3 = test system: OVCAR-3
OVCAR-5 = test system: OVCAR-5
PC-3 = test system: PC-3
SK-MEL-28 = test system: SK-MEL-28
SK-MEL-2 = test system: SK-MEL-2
SK-MEL-5 = test system: SK-MEL-5
SR = test system: SR
SW-620 = test system: SW-620
HCC 2998 = test system: HCC 2998

Measured: GI50

O=C(O)c1ccc(Oc2nc3ccccc3s2)cc1
inactive: A498 > 100 µM | A549 > 100 µM | CAKI-1 > 100 µM | CCRF-CEM > 100 µM | COLO 205 > 100 µM | DU-145 > 100 µM | HCT-116 > 100 µM | HOP-92 87.9 µM | M14 > 100 µM | MDA-MB-231 > 100 µM | NCI-H460 > 100 µM | OVCAR-3 > 100 µM | OVCAR-5 > 100 µM | PC-3 > 100 µM | SK-MEL-28 > 100 µM | SK-MEL-2 > 100 µM | SK-MEL-5 > 100 µM | SR 85.7 µM | SW-620 > 100 µM

COc1ccc(/C=C2\CCS(=O)(=O)c3ccccc3C2=O)cc1
inactive: A498 20.9 µM | A549 39.4 µM | CAKI-1 26.5 µM | CCRF-CEM 20 µM | COLO 205 15.2 µM | DU-145 23.2 µM | HCC 2998 20 µM | HCT-116 17.1 µM | HOP-92 36 µM | M14 34.4 µM | MDA-MB-231 24.6 µM | NCI-H460 21.7 µM | OVCAR-3 30 µM | OVCAR-5 26.7 µM | PC-3 27.5 µM | SK-MEL-28 26.9 µM | SK-MEL-2 31.4 µM | SR 8.55 µM | SW-620 20.9 µM

CCOC(=O)/C(=C\c1c[nH]c2ccccc12)P(=O)(OCC)OCC
inactive: A498 28.8 µM | A549 40.5 µM | CAKI-1 > 100 µM | CCRF-CEM 16.7 µM | COLO 205 20.7 µM | DU-145 46.1 µM | HCC 2998 65.3 µM | HCT-116 32.9 µM | HOP-92 29.2 µM | M14 39.6 µM | MDA-MB-231 27.7 µM | NCI-H460 24.5 µM | OVCAR-3 19.3 µM | OVCAR-5 26.2 µM | PC-3 17.4 µM | SK-MEL-28 36.8 µM | SK-MEL-5 55.8 µM | SR 25.1 µM | SW-620 45.7 µM

COc1ccc2cc(Oc3ccc(Cl)cc3)c(=O)oc2c1
inactive: A498 93.5 µM | A549 > 100 µM | CAKI-1 > 100 µM | CCRF-CEM > 100 µM | DU-145 > 100 µM | HCC 2998 > 10 µM | HCT-116 > 100 µM | HOP-92 > 100 µM | M14 > 100 µM | MDA-MB-231 > 100 µM | NCI-H460 > 100 µM | OVCAR-3 > 100 µM | OVCAR-5 > 100 µM | PC-3 > 100 µM | SK-MEL-28 > 100 µM | SK-MEL-5 > 100 µM | SR > 100 µM | SW-620 > 100 µM

C=C(Br)CNCC(=C)Br
inactive: A498 > 100 µM | A549 > 100 µM | CAKI-1 > 100 µM | CCRF-CEM 76.2 µM | COLO 205 52 µM | DU-145 > 100 µM | HCC 2998 > 100 µM | HCT-116 68.1 µM | M14 > 100 µM | MDA-MB-231 > 100 µM | NCI-H460 > 100 µM | OVCAR-3 30.8 µM | OVCAR-5 > 100 µM | PC-3 50.5 µM | SK-MEL-28 > 100 µM | SK-MEL-2 > 100 µM | SK-MEL-5 89.7 µM | SR > 100 µM | SW-620 > 100 µM

O=C1C=C(NCCc2cc(Br)c(O)c(Br)c2)C(=O)c2[nH]cnc21
inactive: A549 32 µM | CAKI-1 39.9 µM | CCRF-CEM 2.28 µM | COLO 205 24.7 µM | DU-145 36.7 µM | HCC 2998 11.5 µM | HCT-116 7.35 µM | HOP-92 29.7 µM | M14 24.6 µM | MDA-MB-231 29.4 µM | NCI-H460 11.1 µM | OVCAR-3 21.6 µM | OVCAR-5 29.9 µM | PC-3 3.69 µM | SK-MEL-28 39.7 µM | SK-MEL-2 23.4 µM | SK-MEL-5 15.6 µM | SR 32.4 µM | SW-620 21.6 µM

CN(C)C[C@H]1CC[C@@H](CN(C)C)C1=O
inactive: A498 49.2 µM | A549 > 50 µM | CAKI-1 8.79 µM | COLO 205 3.67 µM | DU-145 24.3 µM | HCC 2998 > 29.6 µM | HCT-116 8.32 µM | HOP-92 8.47 µM | M14 8.77 µM | MDA-MB-231 9.86 µM | NCI-H460 19.5 µM | OVCAR-3 9.06 µM | OVCAR-5 8.79 µM | PC-3 8.63 µM | SK-MEL-28 5.15 µM | SK-MEL-2 7.73 µM | SK-MEL-5 11.6 µM | SR 2.21 µM | SW-620 2.11 µM

C[C@@H]1C[C@@H](O)[C@@]2(O)C13CC(=O)OC(C3)[C@@H](C)[C@@]2(C)CO (some centres not stated)
inactive: A498 > 100 µM | A549 > 100 µM | COLO 205 > 100 µM | DU-145 > 100 µM | HCC 2998 > 100 µM | HCT-116 > 100 µM | HOP-92 > 100 µM | M14 > 100 µM | MDA-MB-231 > 100 µM | NCI-H460 > 100 µM | OVCAR-3 > 100 µM | OVCAR-5 > 100 µM | PC-3 > 100 µM | SK-MEL-28 > 100 µM | SK-MEL-2 > 100 µM | SK-MEL-5 > 100 µM | SR > 100 µM | SW-620 > 100 µM

Oc1ccc(Cl)cc1/C=N/c1cnc2ccccc2c1
inactive: A498 > 100 µM | A549 > 92.7 µM | CAKI-1 > 100 µM | CCRF-CEM 1.52 µM | COLO 205 53.8 µM | DU-145 41.5 µM | HCT-116 11.3 µM | HOP-92 28.1 µM | M14 16.9 µM | MDA-MB-231 32.6 µM | NCI-H460 33.7 µM | OVCAR-3 14.5 µM | OVCAR-5 > 100 µM | PC-3 14.3 µM | SK-MEL-28 > 68.9 µM | SK-MEL-2 27.2 µM | SK-MEL-5 27.5 µM | SR 18.8 µM | SW-620 24.8 µM

CCOC(=O)NC(Nc1ccc(S(=O)(=O)Nc2ccc(OC)nn2)cc1)(C(F)(F)F)C(F)(F)F
inactive: A498 26.3 µM | A549 35.3 µM | CAKI-1 > 100 µM | CCRF-CEM 26.5 µM | COLO 205 21.9 µM | DU-145 43.5 µM | HCC 2998 > 100 µM | HCT-116 22.6 µM | HOP-92 28.5 µM | M14 18 µM | MDA-MB-231 18.8 µM | NCI-H460 41.6 µM | OVCAR-3 20.7 µM | OVCAR-5 32.2 µM | PC-3 21.3 µM | SK-MEL-28 24.9 µM | SK-MEL-5 17.8 µM | SR 24.7 µM | SW-620 44.1 µM

CCOC(=O)[C@@]12C[C@](/C=C/OC)(O[Si](C)(C)C)[C@@]13c1cc(OC)c(OC)cc1CCN3C(=O)C2O (some centres not stated)
inactive: A498 > 100 µM | A549 > 100 µM | CAKI-1 > 100 µM | CCRF-CEM > 100 µM | COLO 205 > 100 µM | DU-145 > 100 µM | HCT-116 > 100 µM | HOP-92 > 100 µM | M14 > 100 µM | MDA-MB-231 > 100 µM | NCI-H460 > 100 µM | OVCAR-3 > 100 µM | OVCAR-5 > 100 µM | PC-3 > 100 µM | SK-MEL-28 > 100 µM | SK-MEL-2 > 100 µM | SK-MEL-5 38.5 µM | SR > 100 µM | SW-620 > 100 µM
